For assay [1], the system named is total primary human T-cells. The experiment in a line: IL-2 and IFN-γ release (ELISA) from stimulated primary human T-cells. Conditions: primary human T-cells stimulated with anti-CD3, with and without CD28 co-stimulation; lesser degree without co-stimulation. The assay is classed as cell-based. How it is done:
Cells were stimulated with plate bound anti-CD3 (right) or anti-CD3/anti-CD28 (left) in the presence or absence of the indicated concentration of compound 23. Release of IL-2 or IFN-γ were assessed by ELISA. Compound 23 inhibition of Cbl-b enhanced IL-2 and IFN-γ secretion in primary human T-cells stimulated with anti-CD3 antibodies, in both the presence and absence of CD28 co-stimulation, although to a lesser degree in the absence of co-stimulation.
A general note: An ELISA detects its analyte on a solid surface through an enzyme-linked reagent.

Another assay deals with CT26 tumors. Put plainly: CT26 tumor volume in mice, single agent oral dosing. The assay is classed as in vivo. Particulars: oral administration in mice; colon carcinoma model CT26. As for the experimental part:
Mice bearing tumors on their left and right flanks were treated from Day 7 to Day 32 with oral compound 23 at 10 mg/kg (blue circles) or 30 mg/kg (red circles) or vehicle (black squares). Volumes at Day 25 are indicated. Statistics were calculated with one-way ANOVA and Dunn's multiple comparisons test **P≤0.01.

The next assay relates to MC38 tumors. Put plainly: MC38 model, combination with anti-PD-1 antibody. The assay is classed as in vivo, mice. As for the experimental part: This example provides assays and results for treating tumor models in vivo with combinations of Cbl-b compounds and anti-PD1 antibodies as described herein. The antibody is a mouse anti-PD1 RMP1-14 antibody, useful in mouse in vivo assays as model for administration of human PD-1 axis antagonists for treatment of human cancer.
Beginning on Day 10, tumor volumes were measured twice weekly.

Assay [2] relates to BT549 (BRCA wild type) cells. The experiment in a line: Caspase 3/7 apoptosis Incucyte assay with olaparib, BT549. Type of assay: cell-based. Particulars: 1 μM compound 23, 0.05 μM olaparib, vs 0.05% DMSO, combination also vs single agents p<0.0001. How it is done: (§1) BT549 (BRCA wild type) (A) and DoTc 4510 (BRCA2 mutated) (B) cells were seeded in duplicate into tissue culture treated black-sided, clear-bottom 96-well plates at 5,000^cells/well and allowed to adhere and establish for 24 h. Cells were treated with indicated concentrations of DMSO, compound 23, or Olaparib (FIGS. 13A and 13B) either alone or in combination and were labelled with 1× Essen Bioscience IncuCyte® Caspase-3/7 Green Reagent (final concentration 5 μM). Treated plates were imaged every 2 hours for 72 hours with the IncuCyte® S3 Live-Cell Analysis System. At each timepoint, one image per well was taken in both brightfield and FITC channels on the IncuCyte® S3 Live-Cell Analysis System. Images were analyzed for number of green objects per mm^2 using the IncuCyte S3 v2017A software.
Using a caspase 3/7 apoptosis Incucyte assay, the effect of compound 23, PARPi and the combination of compound 23, and PARPi on tumor cell apoptosis was assessed in both BRCA wild type and mutated tumor cell lines in vitro.

The test system of assay [3] is DoTc 4510 (BRCA2 mutated) cells. The experiment in a line: Caspase 3/7 apoptosis Incucyte assay with olaparib, DoTc 4510. The assay is classed as cell-based. Conditions: vs 0.05% DMSO, combination also vs single agents p<0.0001. As for the experimental part:
as §1

The test system of another assay is BT549 tumor cell line. The experiment in a line: Caspase 3/7 apoptosis Incucyte assay with paclitaxel, BT549. The assay is classed as cell-based. Conditions: 0.1 μM compound 23, 0.002 μM paclitaxel, vs 0.05% DMSO, combination also vs single agents p<0.0001. As for the experimental part: as §1, with “BT549” for “BT549 (BRCA wild type) (A) and DoTc 4510 (BRCA2 mutated) (B)”, “5,000 ^cells/well” for “5,000^cells/well”, “with” for “with indicated concentrations of”, “Paclitaxel” for “Olaparib (FIGS. 13A and 13B)”, “48” for “72”
Using a caspase 3/7 apoptosis Incucyte® assay, the effect of compound 23, paclitaxel and the combination of compound 23 and paclitaxel on tumor cell apoptosis was assessed in the BT549 tumor cell line (a mammary gland carcinoma) in vitro.

Consider `C[C@H]1CCCN(Cc2cc3c(c(C(F)(F)F)c2)CN(c2cccc([C@]4(c5nncn5C)C[C@@H](C)C4)c2)C3=O)C1` [compound 23], for which, in assay [1], the IFN-γ secretion entry is given as “enhanced”. In assay [1], the IL-2 secretion entry was “enhanced”. Besides, the anti-tumor activity result in the assay on CT26 tumors is reported as “significant anti-tumor activity”. In addition, the “interaction with PD-1 antibody blockade” value with MC38 tumors is on record as “synergizes”. Also, the primary tumor volume entry with MC38 tumors (single agents vs vehicle, combination vs vehicle or either single agent) is given as “significantly smaller primary tumors”. The “tumor cell apoptosis (caspase 3/7)” value in assay [2] was “did not undergo a significant increase in apoptosis”; in assay [3], “did not significantly increase tumor cell apoptosis”; in the assay with BT549 tumor cell line, “did not undergo a significant increase in apoptosis”.

These data come from patent publication US12016860B2, “Combination therapies with Cbl-b inhibitor compounds” (Nurix Therapeutics, Inc., priority 2021, dated 2024).
